Measurements from US4237273A, “Bis(nitrosoureido)-polyol derivatives” (Richter Gedeon Vegyeszeti Gyar RT, priority 1977, dated 1980).
Read-outs that look alike come from different tables or passages of the source.

Tests used:
Yoshida s.c. sarcoma = experiment: Antitumour activity, Yoshida s.c. sarcoma, tumour weight (Table 3); format: in vivo, CFY rats; settings: from the 2nd day
Description: (§1) The leukemia and ascites type tumours were transplanted intraperitoneally, using an amount of 10^5 -10^7 cells, while in the case of solid tumours, small pieces of tumours were implanted subcutaneously with a trocar. Treatment:
(§2) Mice were treated with a volume of 0.1 ml./10 g. body-weight of a suspension of the tested compounds in water containing 2% of Tween-80, while rats were treated with a volume of 0.1 ml./100 g. bodyweight of a suspension of the tested compounds in water containing 5% of Tween-80.
(§3) In the case of solid tumours (Harding-Passey melanoma, S-180 and Yoshida sarcoma) the tumours were removed on the 8 to 14th day, and the inhibition was calculated by the weight of the tumours, using the following formula: [formula]

P-388 leukemia = experiment: Antitumour activity, P-388 leukemia (Table 2); format: in vivo, BDF1 mice; settings: from the 2nd day; for Recovery (90 day survival): animals recovered/treated
Description: as §1, §2
(§4) The ascites and leukemia-type tumours were evaluated with the exception of the Rausher leukemia by the increase of the life span and by complete recovery. [formula]
(§5) Recovery=90 days of tumour free life after transplantation.

L-120 leukemia = experiment: Antitumour activity, L-1210 leukemia (Table 2); format: in vivo, BDF1 mice; settings: for Increase in life span / Recovery (90 day survival): from the 2nd day; for Recovery (90 day survival): animals recovered/treated
Description: as §1, §2, §4, §5

Ehrlich acites carcinoma = experiment: Antitumour activity, Ehrlich ascites carcinoma (Table 2); format: in vivo, CFLP mice; settings: from the 2nd day; for Recovery (90 day survival): animals recovered/treated
Description: as §1, §2, §4, §5

Harding-Passey melanoma = experiment: Antitumour activity, Harding-Passey melanoma, tumour weight (Table 3); format: in vivo, CFLP mice; settings: from the 4th day after transplantation
Description: as §1, §2, §3

[1] = Acute toxicity (LD50), 21 days observation; format: in vivo; settings: mouse, in vivo, BDF1 mice of both sexes
Description: Species: BDF1 mice of both sexes
Treatment: a volume of 0.2 ml./10 g. body weight of a suspension of the tested compounds in water containing 2% of Tween-80 was used.
Number of animals: 10/dose
Observation time: 21 days

Rausher leukemia = experiment: Antitumour activity, Rauscher leukemia, spleen weight (Table 3); format: in vivo, CFLP mice; settings: from the 2nd day
Description: as §1, §2, §3
A similar method was applied in the case of the Rauscher leukemia too, but the weight of the spleen was taken, instead of the tumour, in the formula mentioned above.

NK/Ly ascites lymphoma = experiment: Antitumour activity, NK/Ly ascites lymphoma (Table 2); format: in vivo, CFLP mice; settings: from the 2nd day; for Recovery (90 day survival): animals recovered/treated
Description: as §1, §2, §4, §5

[2] = test system: Ehrlich ascites carcinoma; experiment: Duration of activity: total cell number in Ehrlich ascites carcinoma; format: in vivo, Mice; settings: i.p. on the 6th day after transplantation, equitoxic doses
Description: (§6) Mice, being infected with Ehrlich ascites carcinoma, were treated intraperitoneally on the 6th day after transplantation with equitoxic doses of compounds 1, 2 and 6. The duration of the activity was investigated by determining the total cell number and the way of action by determining the mitosis index* and the thymidine index**. It could be shown that both compounds 1 and 2 inhibit the increase of the total cell number for 35 days, while a similar inhibition of the reference compound 6 lasts only for 17 days. As far as the quality of the activity is concerned, compounds 1 and 2 decrease the mitosis-index and the thymidine index in 24 hours by 90%, while in the case of compound 6 the decrease amounts only to 45 to 50%, and the maximum is reached on the 4th day.

[3] = test system: Developed Yoshida s.c. sarcoma; experiment: Recovery from developed Yoshida s.c. sarcoma, treated on 6th day (Table 4); format: in vivo, CFY rats; settings: for Recovery (90 day survival): 30 mg./kg. 1× i.p. on 6th day, animals recovered/treated
Description: as §1, §2, §5

S-180 s.c. sarcoma = experiment: Antitumour activity, S-180 s.c. sarcoma, tumour weight (Table 3); format: in vivo, CFLP mice; settings: from the 2nd day
Description: as §1, §2, §3

[4] = test system: Ehrlich ascites carcinoma; experiment: Way of activity: mitosis index in Ehrlich ascites carcinoma; format: in vivo, Mice; settings: i.p. on 6th day, equitoxic doses
Description: as §6
*mitosis index=number of dividing cells/1000 tumour cells

[5] = test system: Ehrlich ascites carcinoma; experiment: Way of activity: thymidine index (3H-thymidine incorporation into DNS) in Ehrlich ascites carcinoma; format: in vivo, Mice; settings: i.p. on 6th day, equitoxic doses
Description: as §6
**thymidine index=^3 H-thymidine incorporation into the DNS of the tumour cell.

[6] = ip, i.p., read-out: LD50 value i.p.
[7] = po, p.o., read-out: LD50 value p.o.

## O=NN(CCCl)C(=O)N[C@H]1C[C@@H](NC(=O)N(CCCl)N=O)[C@H](O)[C@@H](O)[C@@H]1O [Compound 3, 1,3-bis[3-(2-chloroethyl)-N-nitriosoureido]-1,2,3-trideoxyscylloinositol]
Yoshida s.c. sarcoma; 10 mg./kg. 4× i.p.
  Inhibition (tumour weight): 86%
P-388 leukemia; 3.0 mg./kg. 4× i.p.
  Increase in life span: 101%
  Recovery (90 day survival): 0/8
L-120 leukemia; 10.0 mg./kg. 4× p.o.
  Increase in life span: 61%
  Recovery (90 day survival): 1/7
L-120 leukemia; 15.0 mg./kg. 1× i.p.
  Increase in life span: 180%
  Recovery (90 day survival): 5/8
Ehrlich acites carcinoma; 1.0 mg./kg. 5× i.p.
  Increase in life span: 46%
  Recovery (90 day survival): 2/7
Harding-Passey melanoma; 3.0 mg./kg. 9× i.p.
  Inhibition (tumour weight): 54%
Harding-Passey melanoma; 10.0 mg./kg. 9× p.o.
  Inhibition (tumour weight): 38%
[1]; [6]
  LD50 at 504 h: 40 mg/kg
[1]; [7]
  LD50 at 504 h: 100 mg/kg
Rausher leukemia; 10.0 mg./kg. 6× i.p.
  Inhibition (spleen weight): 100%
NK/Ly ascites lymphoma; 0.1 mg./kg. 4× (route not given)
  Recovery (90 day survival): 7/7
NK/Ly ascites lymphoma; 10.0 mg./kg. 4× p.o.
  Increase in life span: 61%
  Recovery (90 day survival): 1/7

## O=NN(CCCl)C(=O)NC[C@@H](O)[C@H](O)CNC(=O)N(CCCl)N=O (racemic) [Compound 5, 1,4-bis[3-(2-chloroethyl)-3-nitrosoureido]-1,4-dideoxy-D,L-threitol]
Yoshida s.c. sarcoma; 3 mg./kg. 4× p.o.
  Inhibition (tumour weight): 62%
Yoshida s.c. sarcoma; 10 mg./kg. 2× p.o.
  Inhibition (tumour weight): 99%
[1]; [6]
  LD50 at 504 h: 40 mg/kg
[1]; [7]
  LD50 at 504 h: 75 mg/kg
Rausher leukemia; 3.0 mg./kg. 4× i.p.
  Inhibition (spleen weight): 75%
Rausher leukemia; 10.0 mg./kg. 4× p.o.
  Inhibition (spleen weight): 100%

## O=NN(CCCl)C(=O)NCCCl [Compound 6, 1,3-bis(2-chloroethyl)-1-nitrosourea, reference compound]
[2]
  Duration of inhibition of the increase of the total cell number: 17 days
Yoshida s.c. sarcoma; 3 mg./kg. 4× p.o.
  Inhibition (tumour weight): 45%
Yoshida s.c. sarcoma; 10 mg./kg. 4× i.p.
  Inhibition (tumour weight): 95%
Yoshida s.c. sarcoma; 10 mg./kg. 4× p.o.
  Inhibition (tumour weight): 100%
[3]
  Recovery (90 day survival): 0/7
[3]; single dose on the 6th day
  Cure of Yoshida subcutaneous sarcoma, in words: inactive
P-388 leukemia; 3.0 mg./kg. 4× i.p.
  Increase in life span: 51%
  Recovery (90 day survival): 0/8
L-120 leukemia; 3.0 mg./kg. 4× i.p.
  Increase in life span: 40%
  Recovery (90 day survival): 0/8
L-120 leukemia; 10.0 mg./kg. 4× i.p.
  Increase in life span: 405%
  Recovery (90 day survival): 6/7
L-120 leukemia; 10.0 mg./kg. 4× p.o.
  Increase in life span: 106%
  Recovery (90 day survival): 1/8
L-120 leukemia; 24.0 mg./kg. 1× p.o.
  Increase in life span: 48%
  Recovery (90 day survival): 0/8
L-120 leukemia; oral
  Activity on L-1210 leukemia on oral application, in words: only an unsignificant oral activity
S-180 s.c. sarcoma; 10.0 mg./kg. 5× i.p.
  Inhibition (tumour weight): 65%
S-180 s.c. sarcoma; 10.0 mg./kg. 5× p.o.
  Inhibition (tumour weight): 32%
[4]
  Day on which the maximum decrease of the mitosis-index is reached: 4 days
Ehrlich acites carcinoma; 3.0 mg./kg. 5× i.p.
  Increase in life span: 60%
  Recovery (90 day survival): 1/6
Harding-Passey melanoma; 3.0 mg./kg. 9× i.p.
  Inhibition (tumour weight): 64%
Harding-Passey melanoma; 3.0 mg./kg. 9× p.o.
  Inhibition (tumour weight): 71%
[5]
  Day on which the maximum decrease of the thymidine index is reached: 4 days
[1]; [6]
  LD50 at 504 h: 36 mg/kg
[1]; [7]
  LD50 at 504 h: 40 mg/kg
Rausher leukemia; 10.0 mg./kg. 6× i.p.
  Inhibition (spleen weight): 97%
NK/Ly ascites lymphoma; 0.3 mg./kg. 4× i.p.
  Recovery (90 day survival): 0/7
NK/Ly ascites lymphoma; 1.0 mg./kg. 4× i.p.
  Recovery (90 day survival): 5/7
NK/Ly ascites lymphoma; 3.0 mg./kg. 4× i.p.
  Recovery (90 day survival): 7/7

## O=NN(CCCl)C(=O)NC[C@@H](O)[C@@H](O)[C@H](O)[C@H](O)CNC(=O)N(CCCl)N=O [Compound 2, 1,6-bis[3-(3-chloroethyl)-N-nitrosoureido]-1,6-dideoxy-D-mannitol]
[2]
  Duration of inhibition of the increase of the total cell number: 35 days
Yoshida s.c. sarcoma; 10 mg./kg. 4× i.p.
  Inhibition (tumour weight): 84%
Yoshida s.c. sarcoma; 30 mg./kg. 4× p.o.
  Inhibition (tumour weight): 75%
[3]
  Recovery (90 day survival): 4/7
P-388 leukemia; 10.0 mg./kg. 4× i.p.
  Increase in life span: 131%
  Recovery (90 day survival): 0/8
L-120 leukemia; 1.0 mg./kg. 4× i.p.
  Increase in life span: 58%
  Recovery (90 day survival): 0/10
L-120 leukemia; 3.0 mg./kg. 4× i.p.
  Increase in life span: 158%
  Recovery (90 day survival): 3/10
L-120 leukemia; 10.0 mg./kg. 4× i.p.
  Increase in life span: 140%
  Recovery (90 day survival): 8/10
S-180 s.c. sarcoma; 10.0 mg./kg. 5× i.p.
  Inhibition (tumour weight): 56%
S-180 s.c. sarcoma; 30.0 mg./kg. 5× p.o.
  Inhibition (tumour weight): 51%
[4]; in 24 hours
  Decrease of the mitosis-index: 90%
Ehrlich acites carcinoma; 1.0 mg./kg. 5× i.p.
  Increase in life span: 96%
  Recovery (90 day survival): 4/7
Harding-Passey melanoma; 10.0 mg./kg. 9× i.p.
  Inhibition (tumour weight): 42%
Harding-Passey melanoma; 10.0 mg./kg. 9× p.o.
  Inhibition (tumour weight): 59%
[5]; in 24 hours
  Decrease of the thymidine index: 90%
[1]; [6]
  LD50 at 504 h: 110 mg/kg
[1]; [7]
  LD50 at 504 h: 250 mg/kg
Rausher leukemia; 10.0 mg./kg. 4× i.p.
  Inhibition (spleen weight): 86%
NK/Ly ascites lymphoma; 0.3 mg./kg. 4× i.p.
  Recovery (90 day survival): 6/7

## O=NN(CCCl)C(=O)NC[C@@H](O)[C@H](O)CN(N=O)C(=O)NCCCl (racemic) [Compound 4, 1-[3-(2-chloroethyl)-3-nitrosoureido]-4-[3-(2-chloroethyl)-1-nitrosoureido]-1,4-dideoxy-D,L-threitol]
Yoshida s.c. sarcoma; 3 mg./kg. 4× p.o.
  Inhibition (tumour weight): 50%
Yoshida s.c. sarcoma; 10 mg./kg. 4× i.p.
  Inhibition (tumour weight): 82%
[1]; [6]
  LD50 at 504 h: 80 mg/kg
[1]; [7]
  LD50 at 504 h: 130 mg/kg
Rausher leukemia; 10.0 mg./kg. 4× i.p.
  Inhibition (spleen weight): 100%
Rausher leukemia; 10.0 mg./kg. 4× p.o.
  Inhibition (spleen weight): 100%
